The subject of series [1] is Mtb H37Rv. The series can be described thus: TB MIC – SRI, resazurin-based microplate assay. The series is classed as cell-based, Mycobacterium tuberculosis. The following applies: lowest concentration inhibiting ≥90% growth.
Series [2] concerns Mtb H37Rv. As to the kind of experiment: TB MIC – ITR. The series is classed as cell-based, Mycobacterium tuberculosis. The following applies: ITR laboratory.
For series [3], the system named is NRP Mtb H37Rv cells. The series can be described thus: Low-oxygen recovery assay. The series is classed as cell-based, Mycobacterium tuberculosis. Conditions: non-replicating Mtb, anaerobic 10 d + 28-h recovery; ~90% inhibition.
Series [4] deals with Vero cells (Vero ATCC CCL-81). The series can be described thus: Cytotoxicity against Vero cells. Conditions: 72 h incubation.
Series [5] is described as follows: Plasma pharmacokinetics after oral administration to female mice. The series is classed as in vivo, mouse.
Series [6] has as its system M. smegmatis. As to the kind of experiment: Antimicrobial spectrum of activity. The format is cell-based. The following applies: relative to activity against Mtb; SI Table 1.
The subject of series [7] is M. abscessus. The series can be described thus: Antimicrobial spectrum of activity. The format is cell-based. The following applies: SI Table 1.
Series [8] concerns L5178Y mouse lymphoma cells. As to the kind of experiment: Mouse lymphoma cell tk+/−→tk−/− gene mutation. The format is cell-based. The following applies: for Mutation frequency response in MOLY assay: in the presence or absence of metabolic activation (S9), non-cytotoxic dose levels.
Series [9] concerns Salmonella typhimurium strain TA98. The series can be described thus: Ames assay, plate incorporation method. The series is classed as cell-based. For orientation: In the Ames test, an excess of revertant colonies over the control signals mutagenicity.
In series [10] the test system is Salmonella typhimurium strain TA100. As to the kind of experiment: Ames assay, plate incorporation method. The format is cell-based.
The subject of series [11] is L5178Y mouse lymphoma cells. Conditions: no reference printed at b52; cited from earlier work.
Where [12] appears, read: in the presence and absence of metabolic activation (10% rat-liver S9).

Where two headings read alike, the source gives them in different places.

With “3-((1-methoxybutan-2-yl)amino)benzo[e][1,2,4]triazine 1,4-dioxide [Compound 8i]”, in [1], the “TB MIC – SRI” value came out at 10.0 µg/mL. Besides, the “TB MIC – ITR” value in series [2] was 6.6 µg/mL. In addition, the “LORA MIC – ITR” value in [3] turned out to be 4.9 µg/mL. Also, in [4], the “Vero Tox CC50” value is over 50 µg/mL.
On to “7-chloro-3-((1-methoxybutan-2-yl)amino)benzo[e][1,2,4]triazine 1,4-dioxide [Compound 15bi]”, for which the “TB MIC – SRI” value in series [1] turned out to be 1.2 µg/mL.
Turning to “7-fluoro-3-((1-methoxybutan-2-yl)amino)benzo[e][1,2,4]triazine 1,4-dioxide [Compound 15ai]”, the “TB MIC – SRI” value in series [1] is 5.0 µg/mL. Moreover, in [2], the “TB MIC – ITR” value was 2.0 µg/mL. In series [3], the “LORA MIC – ITR” value stood at 1.9 µg/mL. For the same compound, in series [4], the “Vero Tox CC50” value was 6.3 µg/mL.
Regarding `CCNc1n[n+]([O-])c2ccccc2[n+]1[O-]` [Compound 8a, 3-(ethylamino)benzo[e][1,2,4]triazine 1,4-dioxide], the “Plasma drug concentration at the 24 hr time point” value in series [5] (mouse, in vivo, po, 100 mg/kg) is “lower than the limit of quantitation”. In addition, the “Antimicrobial activity against M. smegmatis” value in series [6] is reported as “weaker activity”. Further, the “Antimicrobial activity against M. abscessus” value in [7] is reported as “resistant”.
On to `CCNc1n[n+]([O-])c2cc3c(cc2[n+]1[O-])CCC3` [Compound 15fa, 3-(ethylamino)-7,8-dihydro-6H-indeno[5,6-e][1,2,4]triazine 1,4-dioxide], for which the “Mutagenic potential, +S9, 4-Hr Exposure” value in [8] (dose 10 μg/mL), in series [8] (dose 25 μg/mL), in series [8] (dose 50 μg/mL) and in series [8] (dose 100 μg/mL) was “Positive” in each case. Moreover, the “Mutagenic potential, +S9, 24-Hr Exposure” value in series [8] (dose 10 μg/mL), in [8] (dose 25 μg/mL), in [8] (dose 50 μg/mL) and in series [8] (dose 100 μg/mL) was “Positive” in each case. Besides, the “Mutagenic potential, −S9, 4-Hr Exposure” value in series [8] (dose 10 μg/mL), in series [8] (dose 25 μg/mL), in series [8] (dose 50 μg/mL) and in series [8] (dose 100 μg/mL) was “Positive” throughout. For the same compound, the “Mutation frequency response in MOLY assay” value in [8] was “significant increase in mutation frequency”. In addition, in [9], the “Number of revertant colonies, strain TA98” value is given as “dose-related increases in the number of revertant colonies”. Besides, the “Number of revertant colonies, strain TA100” value in [10] is recorded as “dose-related increases in the number of revertant colonies”.
In the case of `[O-][n+]1nc(N2CCCC2)[n+]([O-])c2cc3c(cc21)CCC3` [Compound 20q, 3-(pyrrolidin-1-yl)-7,8-dihydro-6H-indeno[5,6-e][1,2,4]triazine 1,4-dioxide], the “Mutagenic activity in MOLY assay” value in [8] (at concentrations up to 100 μg/mL) was “no mutagenic activity”. The “Mutagenic potential, +S9, 4-Hr Exposure” value is listed as “Negative” in series [8] (dose 10 μg/mL), “Negative ^a” in [8] (dose 25 μg/mL), “Negative” in [8] (dose 50 μg/mL) and “Negative” in [8] (dose 100 μg/mL). Also, the “Mutagenic potential, −S9, 4-Hr Exposure” value in [8] (dose 10 μg/mL), in series [8] (dose 25 μg/mL), in series [8] (dose 50 μg/mL) and in [8] (dose 100 μg/mL) was “Negative” in each case. Also, the “Mutagenic potential, −S9, 24-Hr Exposure” value in series [8] (dose 10 μg/mL), in series [8] (dose 25 μg/mL), in series [8] (dose 50 μg/mL) and in series [8] (dose 100 μg/mL) was “Negative” each time. The “Mutagenic potential, +S9, 24-Hr Exposure” value in [8] (dose 25 μg/mL), in series [8] (dose 50 μg/mL) and in series [8] (dose 100 μg/mL) was “Negative” in each case. Also, the “Mutation frequency response in MOLY assay” value in [8] is listed as “negative response”. Besides, in series [9] (setting [12]), the “Number of revertant colonies, strain TA98” value was “dose-related increases in the number of revertant colonies”. In addition, the “Number of revertant colonies, strain TA100” value in series [10] (setting [12]) was “dose-related increases in the number of revertant colonies”. Besides, in [5] (female mice, 100 mg/kg po, n = 3 per time point), the “Plasma drug concentration at the 24 hr time point” value is reported as “lower than the limit of quantitation”. The “Antimicrobial activity against M. smegmatis” value in series [6] was “weaker activity”. In addition, in series [7], the “Antimicrobial activity against M. abscessus” value is “resistant”.
With `Nc1n[n+]([O-])c2ccccc2[n+]1[O-]` [TPZ, tirapazamine], the “Mutagenicity in MOLY assay” value in series [11] is “mutagenic”.

The record behind these values is publication PMC3395780 (Journal of Medicinal Chemistry, 2012).
